Source: PMC5764437, “Discovery of novel, orally bioavailable, antileishmanial compounds using phenotypic screening” (PLoS Neglected Tropical Diseases, 2017)
“Also recorded” adds a separate entry of the source.

Tests used:
[1] = Caco-2 permeability assay; assay type: in vitro ADME; details: human, pH 7.4; for Papp A→B at 2 h, 10 μmol/L / Papp B→A at 2 h, 10 μmol/L: Caco-2, mean ± standard deviation of three runs; for Papp A→B at 2 h, 10 μmol/L: read-out: Caco-2 (A→B) permeability coefficient; for Papp B→A at 2 h, 10 μmol/L: read-out: Caco-2 (B→A) permeability coefficient
[2] = tested on: L. donovani intracellular amastigotes; experiment: Growth inhibition of intracellular amastigotes in J774A.1 macrophages (Renilla luciferase luminescence); assay type: cell-based; details: Leishmania donovani, J774.A1; intracellular amastigotes in J774A.1 macrophages; mean ± standard deviation, n = 2; read-out: L. donovani EC50
Method: L. mexicana (MNYZ/BZ/62/M379) or L. donovani (LdBob strain) parasites expressing the Renilla luciferase gene from a rRNA gene locus were used to infect J774A.1 macrophages. Growth of intracellular amastigotes was measured using a luminescence assay, as detailed previously. The growth inhibitor activities of compounds were tested against bloodstream form Lister 427 T. brucei in 96-well plates containing 1 X 10^5 parasites per well in 0.2 ml HMI-11 medium (Gibco/Thermo Fisher). Compounds (2 μl volumes in DMSO) were added to the parasites using serial 3-fold dilutions to cover a range of concentrations from about 10 μM to 1 nM. After 48 h incubation at 37°C under a humidified 5% CO2 atmosphere, 10 μl of 10% Triton X-100 and 100 X stock SYBR Green I (Sigma-Aldrich) in PBS was added and florescence measured (excitation 497 nm; emission 520 nm) after 1 h incubation in the dark using a Spectra Max Gemini XPS fluorimeter (Molecular Devices). Data were log transformed and EC50 values were determined using GraphPad Prism 6 (GraphPad Software). In the absence of growth inhibiting compounds, the parasites grew from an initial density of 5 X 10^5 cells/mL to ~3 X 10^6 cells/mL.

mouse plasma proteins = experiment: Mouse plasma protein binding assay (Rapid Equilibrium Dialysis); assay type: in vitro ADME; details: across tested concentrations
Method: (§1) A Rapid Equilibrium Dialysis (RED) Plate (Thermo Scientific, catalog #, PI-90007) was used to determine the percentage of compound binding to mouse plasma proteins (Thermo Scientific, catalog #, 50642085). The positive control for this experiment was propranolol HCl (295.807 g/mol) and the internal standard was warfarin in methanol (2 μM). 10 mM stocks of compound in DMSO were diluted with DMSO and acetonitrile to three different intermediate concentrations: high (2 mM), medium (0.4 mM) and low (0.08 mM) concentration in DMSO:acetonitrile (1:4, v:v). 10 mM stock of propranolol in DMSO were diluted to 0.4 mM concentration in DMSO:acetonitrile (1:4 v:v).
(§2) In 10 Eppendorf tubes, the control (10 μL) or each of three compound dilutions (10 μL) were each added to separate aliquots of 990 μL mouse plasma. Potassium phosphate buffer (500 μL, 0.1 M, pH 7.4, 37 °C) was placed in every white well of the RED plate and each plasma/compound mixture was added to each of 3 RED wells (300 μL). The RED plate holds triplicate samples of one control (final concentration […]) and one compound (final concentrations: 20 μM, 4 μM, […]). The RED Plate was sealed and incubated at 37 °C shaking at 250 rpm for 4 hours. After incubation, aliquots (50 μL) from each well in the RED plate were transferred to an assay plate (pION Inc., MA, #110323). In order to create a uniform matrix in every well of the assay plate, plasma (50 μL) was added to each of the wells that already contained buffer and potassium phosphate buffer (50 μL) was added to each of the wells that already contained plasma/compound. Pre-cooled internal standard (300 μL) was added to the assay plate to quench the reaction. The quenched plate was then centrifuged (5810R, Eppendorf, Westbury, NY) at 3000 rpm for 20 minutes.
(§3) The percentage of free compound [1] and bound compound [2] was calculated usng the AUC ratio of compound to warfarin from the SIR spectra. For reporting data, % Free = Concentration buffer/Concentration plasma *100 %, and % Bound = 100% - % Free.

[3] = as above; assay type: in vitro ADME; details: mouse, mouse plasma, pH 7.4; for fraction unbound at 4 h, 0.8 μM: Conc. 0.8 μM; for fraction unbound at 4 h, 4 μM: Conc. 4 μM; for fraction unbound at 4 h, 20 μM: Conc. 20 μM
Method: as §1, §2, §3

J774A.1 macrophages = experiment: Cytotoxicity to J774A.1 macrophages (dose-response); assay type: cell-based; details: for EC50: Mus musculus, J774.A1, host macrophage, tested up to 10 μM, mean ± standard deviation, n = 2, read-out: J774A.1 EC50
Method: Cytotoxicity of compounds to J774.A1 macrophages was determined by dose-response curves as described previously. In the absence of growth inhibitors or DMSO, the macrophages increased in number ~6-fold over 96 h in Minimum Essential Medium, employed for both macrophage infections and the toxicity assays.

[4] = Liver microsomal stability, rat; details: liver microsomes, pH 7.4
Method: One part of 10 mM DMSO compound stock was mixed with 4 parts of acetonitrile to make 2 mM diluted compound stock in DMSO and acetonitrile. 29.1 µL diluted compound stock was added to 2.3 mL liver microsomal solution and vortexed to make microsomal solution with compound. […] For the 0 h time point, 450 µL pre-cooled (4 °C) internal standard (10 µM warfarin in methanol) was added to the first three columns before the reaction was initiated. 1.25 ml of microsome assay solution A (Fisher Scientific, #NC9255727) was combined with 0.25 ml of solution B (Fisher Scientific, #NC9016235) in 3.5 ml of potassium phosphate buffer (0.1 M, pH 7.4). 45 µL of this A+B solution was added to each well of the 96-well storage plate (reaction plate). Liquid in the first 3 columns was moved to another storage plate (quenched plate). The reaction plate was then sealed, incubated at 37 °C, and shaken at a speed of 60 rpm. Time points (0.5 h, 1 h, 2 h) were taken. At each time point, 450 µL pre-cooled internal standard was added to 3 rows in the reaction plate, and the liquid was then transferred to the quenched plate. […] 200 µL supernatant was transferred to a 96-well plate and analyzed by ultra-performance liquid chromatography-mass spectrometry (UPLC-MS) (Waters Inc.). The compounds and internal standard were detected by selected ion recording (SIR).

Row | SMILES | Papp A→B at 2 h, 10 μmol/L [1] [×10⁻⁶ cm/s] | Papp B→A at 2 h, 10 μmol/L [1] [×10⁻⁶ cm/s] | EC50 [2] [nM] | Binding to mouse plasma proteins (mouse plasma proteins) [%] | fraction unbound at 4 h, 0.8 μM [3] | fraction unbound at 4 h, 4 μM [3] | fraction unbound at 4 h, 20 μM [3] | EC50 (J774A.1 macrophages) [nM] | Reduction in viability / inhibition of host macrophage J774A.1 in dose-response studies (J774A.1 macrophages; up to 10 μM) | half-life at 20 μM [4] [h] | efflux ratio at 2 h, 10 μmol/L ([1]; Caco-2, pH 7.4, Papp B→A / Papp A→B)
1 | COc1ccc(-c2c(C(F)(F)F)oc3c(CN4CCN(C)CC4)c(O)ccc3c2=O)cc1OC [Compound 4] | 49 ± 0.3 | 39 ± 0.7 | 600 ± 500 | < 50 | 0.54 | 0.599 | 0.534 | > 10000 | no reduction in viability; also recorded: no inhibition of J774A.1 macrophages up to 10 μM concentration | > 4 | 
2 | Cc1ccc(-c2nc3ccccc3s2)cc1NC(=O)c1cc([N+](=O)[O-])c(N2CCN(C)CC2)cc1Cl [Compound 5] | 16.8 ± 2.4 | 32.2 ± 2.9 | 29 ± 27 | < 50 | 0.65 | 0.591 | 0.586 | 1100 ± 800 |  | > 4 | 1.92
